The text below walks through data of patent publication US20210087167A1, “ASK1 INHIBITOR COMPOUNDS AND USES THEREOF” (SEAL ROCK THERAPEUTICS, INC., priority 2017, published 2021).

Assay [1] deals with T1, ASK1 (Homo sapiens, UniProt Q99683).
T1 construct: purchased Promega V3881
Description: ASK1 Kinase Assay (Promega ASK1 Kinase Enzyme System, ADP-Glo). Format: biochemical. The conditions noted are these: enzyme 50 nM, myelin basic protein 1 μg/ml, ATP 10 μM. The method, then:
The ASK1 enzymatic assay was run following Promega ASK1 Kinase Enzyme System (Cat #V3881). The kit provides the protocol, enzymes and all reagents necessary to run an assay.
Firstly, the compounds, enzyme, substrate and ATP were diluted in provided assay buffer. The final concentration of the enzyme was 50 nM, substrate (Myelin basic protein) 1 μg/ml and ATP 10 μM. The compound and the enzyme were pre-incubated in a 384 well white solid bottom plate (Greiner, Cat #784075) for 10 minutes. After incubation, the substrate and ATP were added and incubated for further 60 minutes. After 60 minutes, ADP-Glo™ was added and plate was incubated for another 40 minutes. After 40 minutes, Kinase Detection Reagent was added and the plate was incubated for 45 minutes. After 45 minutes, plate was read on Perkin Elmer EnVision using luminescence read (0.5 seconds/well).

In assay [2] the test system is LPS-induced TNFalpha in human PBMCs. Put plainly: Inhibition of LPS-induced TNFalpha in human PBMCs (ELISA). Format: cell-based. The conditions noted are these: PBMC, 100 ng/ml LPS, 6 hr, read-out: TNFa Inhibition IC50. The method, then: Cryopreserved human PBMCs were obtained from AllCells (cat #PB003F). After thawing/dilution protocols using RPMI medium supplemented with 5% FBS (heat inactivated), 100 ul/well of 1×10^6 cells/ml were plated into 96 well tissue culture plates (Corning). Cells were then pre-incubated for 1 hr at 37° C. in humidified 5% CO2 and 95% air with test compounds diluted in DMSO (final DMSO concentration 0.3%). Each compound was tested at 10 concentrations in duplicate wells. After the pre-incubation, 100 ng/ml LPS (E. Coli; Sigma) in RPMI media with 5% FBS was added for a 6 hr incubation at 37° C. in humidified 5% CO2 and 95% air. Controls on each plate included cells and LPS only, cells and media only (no LPS), and media only. After the 6 hr incubation, plates were centrifuged and the supernatants transferred to a new plate and frozen for subsequent TNFalpha analysis. Human TNFalpha was analyzed by ELISA according to the manufacturer's instructions (BD Sciences, BD OptEIAm Cat #550610) and analyzed on a SpectraMax M series (Molecular Devices) microplate reader at OD 450 nm. IC50s were calculated using XLFit4 curve fitting software (IDBS) and a 4-parameter one-site sigmoid dose response fit.
In general terms: In an ELISA, binding on a coated surface is turned into a signal by an enzyme label.

T1 sequence (Q99683 649-946 limits assumed): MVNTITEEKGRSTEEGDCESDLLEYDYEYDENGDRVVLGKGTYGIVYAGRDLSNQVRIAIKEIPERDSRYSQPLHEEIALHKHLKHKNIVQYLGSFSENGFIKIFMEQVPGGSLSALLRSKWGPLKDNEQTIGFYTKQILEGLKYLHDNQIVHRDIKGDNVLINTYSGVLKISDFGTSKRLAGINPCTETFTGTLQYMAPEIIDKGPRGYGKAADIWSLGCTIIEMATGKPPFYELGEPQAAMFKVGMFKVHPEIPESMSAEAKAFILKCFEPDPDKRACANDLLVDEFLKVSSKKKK

As a reminder, the IC50 is the concentration needed to halve the response being measured. Compound “2-(6-(4-cyclopropyl-4H-1,2,4-triazol-3-yl)pyridin-2-yl)-5-isopropoxy-6-(pyridin-3-yl)isoindolin-1-one [Compound 70]” displayed an IC50 in assay [1] of less than 200 nM. `O=C(c1ccc2c(c1)CN(c1cccc(-c3nncn3C3CC3)n1)C2=O)N1CCOCC1` [Compound 7, 2-(6-(4-cyclopropyl-4H-1,2,4-triazol-3-yl)pyridin-2-yl)-5-(morpholine-4-carbonyl)isoindolin-1-one]: the IC50 in assay [2] is more than 10 µM.

As to `O=C(c1ccc2c(c1)CN(c1cccc(-c3nncn3C3CC3)n1)C2=O)N1CCC(O)CC1` [Compound 12, 2-(6-(4-cyclopropyl-4H-1,2,4-triazol-3-yl)pyridin-2-yl)-5-(4-hydroxypiperidine-1-carbonyl)isoindolin-1-one], the IC50 in assay [2] was more than 10 µM.

On to `CC1(O)CCN(C(=O)c2ccc3c(c2)CN(c2cccc(-c4nncn4C4CC4)n2)C3=O)CC1` [Compound 13, 2-(6-(4-cyclopropyl-4H-1,2,4-triazol-3-yl)pyridin-2-yl)-5-(4-hydroxy-4-methylpiperidine-1-carbonyl)isoindolin-1-one], for which the IC50 in assay [2] was more than 10 µM.

Turning to `CC(=O)N1CCN(C(=O)c2ccc3c(c2)CN(c2cccc(-c4nncn4C4CC4)n2)C3=O)CC1` [Compound 16, 5-(4-acetylpiperazine-1-carbonyl)-2-(6-(4-cyclopropyl-4H-1,2,4-triazol-3-yl)pyridin-2-yl)isoindolin-1-one], the IC50 in assay [2] was more than 10 µM. Still for that read-out and setting: as for `CC(=O)NC1CCN(C(=O)c2ccc3c(c2)CN(c2cccc(-c4nncn4C4CC4)n2)C3=O)CC1` [Compound 17, N-(1-(2-(6-(4-cyclopropyl-4H-1,2,4-triazol-3-yl)pyridin-2-yl)-1-oxoisoindoline-5-carbonyl)piperidin-4-yl)acetamide], the figure is more than 10 µM.

In turn, `Cn1ccc(-c2ccc3c(c2)CN(c2cccc(-c4nncn4C4CC4)n2)C3=O)n1` [Compound 27] registered an IC50 in assay [1] of less than 200 nM.

Regarding `CN(C)c1ccc2c(c1)CN(c1cccc(-c3nncn3C3CC3)n1)C2=O` [Compound 34], the IC50 in assay [1] was less than 200 nM. For `O=C1c2cc(-c3cnc(C4CC4)cn3)ccc2CN1c1cccc(-c2nncn2C2CC2)n1` [Compound 60, 2-(6-(4-cyclopropyl-4H-1,2,4-triazol-3-yl)pyridin-2-yl)-6-(5-cyclopropylpyrazin-2-yl)isoindolin-1-one], the IC50 in assay [2] is more than 10 µM.

Consider `O=C(Nc1cc2c(cc1F)CN(c1cccc(-c3nncn3C3CC3)n1)C2=O)C1CC1` [Compound 75, N-(2-(6-(4-cyclopropyl-4H-1,2,4-triazol-3-yl)pyridin-2-yl)-6-fluoro-3-oxoisoindolin-5-yl)cyclopropanecarboxamide], for which the IC50 in assay [1] lay within 200 to 1000 nM.
